Assay results: PMC12631873 (Advanced Science, 2025)
Square brackets hold non-standard residues; d marks the D form. Peptide text beside a SMILES is read from it. * marks the point of attachment. X1 = CN1/C(=C/C=C/C=C/C2=[N+](CCCCCC(=O)*)c3ccc(S(=O)(=O)[O-])cc3C2(C)C)C(C)(C)c2cc(S(=O)(=O)O)ccc21; Hyp = O=C(O)[C@@H]1C[C@@H](O)CN1; Nlys = NCCCCNCC(=O)O; Ahx = NCCCCCC(=O)O

Key:
[1] = system: human umbilical vein endothelial cells (HUVECs); test: CCK-8 cell viability assay on HUVECs; assay type: cell-based; conditions: 0-40 µM, 24 h, n = 6 wells
Description: The cultures were maintained under standard conditions of 37 °C and 5% CO2. Chondrocytes collected from the articular cartilage of Sprague‐Dawley (SD) rats (purchased from Jennio Biotech, JNO‐720) were cultured in DMEM medium (Precell, PM150210). Human venous endothelial cells (HUVECs, purchased from iCell, iCell‐h110) were cultured in HUVEC medium (iCell, iCell‐h110‐001b). Both cells were seeded in 96‐well plates at a density of 5000 cells per well. The medium was supplemented with 10% fetal bovine serum (FBS, Precell, 164210) and penicillin‐streptomycin (1:100 diluted from a 100× stock solution, ThermoFisher, 15140122) to support cell growth and prevent bacterial contamination. When cell confluency reached 80%, peptidomimetic probes at increasing concentrations ranging from 0 to 40 µM were added to the cell culture medium (n = 4 wells for chondrocytes, n = 6 wells for HUVECs; blank control group: 0 µM; cells cultured without probe). Following 24 h (or 72 h) of incubation, the medium was removed, and the cells were rinsed three times with 1× PBS buffer. Cell viability was assessed using the CCK‐8 assay kit (GLPBIO, GK10001−5) according to the manufacturer's instructions. After further incubation for 4 h, the optical density (OD) of the CCK‐8 solution was measured at 450 nm using a microplate reader (PerkinElmer, EnVision). For live‐dead cell staining, rat chondrocytes (5000 cells per well seeded, n = 4 wells per group) were cultured for 24 h in medium (without fetal bovine serum) containing 40 µM of each peptidomimetic probe in a 96‐well plate. […] The fluorescence images were obtained using an EVOS M7000 imaging system (Light cubes: GFP and RFP, Objective: 10×). A microscopic image was taken from the live (Calcein AM) staining of each well, and the total fluorescence signals were quantified for each image. The mean fluorescence level of each probe's group was normalized to the blank control group to estimate the relative cell viability. […] The fluorescence intensity of each well was measured by the microplate reader (Ex / Em: 620 /662 nm). […]

cartilage = test: In vivo and ex vivo fluorescence imaging of cartilage uptake and retention in nude mice; design: species or system mouse
From the text: All procedures for mouse maintenance and experiments strictly followed the policy of the Experimental Animal Ethics Committee of the Fifth Affiliated Hospital of Sun Yat‐sen University (protocol numbers: 00361, 00436). Balb/c nu mice (male, 10‐18 weeks old) were used for the general in vivo imaging experiments (Figure 3c–f; Figures S10–S14, Supporting Information). For Figure 3g,h and Figure S16 (Supporting Information), neonatal Balb/c mice (7 days old) were used. Female Balb/c mice (74 weeks old versus 12 weeks old) were used in the aged joint imaging experiment reported in Figure 4a–c and Figure S17 (Supporting Information). The RA model was made using female Balb/c mice (6‐8 weeks old) by intraperitoneal injection of an anti‐collagen antibody cocktail (1.5 mg per mouse; Chondrex, 53100) followed by selective subcutaneous injection of lipopolysaccharide (LPS, 12.5 µg per mouse, Chondrex, 53100) into the left hind paw three days later.^[ [30] ^] C57BL/6J mice (male, 6–8 weeks old) were used for the biocompatibility tests (Figures S23–S25, Supporting Information).
Typically, the fluorescence peptides or peptoids were prepared at a dose of 1 nmol (10 µM in 100 µL of 1× PBS buffer) and injected into the tail vein of each mouse 2 h prior to fluorescence imaging with an IVIS Spectrum imager (PerkinElmer Lumina III). For Figure 4, Figures S17 and S18 (Supporting Information) (joint aging and RA) and Figure S27 (Supporting Information), 2 nmol of Cy5‐(NlysO)7 (20 µM in 100 µL of 1× PBS buffer) were i.v. administered to each mouse. For 1‐week‐old neonatal mice, 1 nmol of Cy5‐(NlysO)7 (20 µM in 50 µL of 1× PBS buffer) was intravenously injected into each mouse. All in vivo imaging was performed 2 h post probe injection with the IVIS Spectrum imager (PerkinElmer, fluorescence: ex/em: 620/670 nm, exposure: 1 s, bing: 4, F/Stop: 2; field of view: A/B/C/Z). Mice were anesthesia with 3% isoflurane (RWD, R510‐22‐10) during image acquisition. Hair in the knee areas was removed before fluorescence imaging for mice in Figure 4a and Figure S17 (Supporting Information). The mice were euthanized following the final image acquisition and occasionally imaged again after skin and organ removal. Next, the airways, ankles, ears, paws, knees, tails, spines, and chest ribs were collected, imaged, and saved for subsequent histology analysis. All acquired fluorescence images were analyzed using the Living Image software (PerkinElmer). The fluorescence signal from each specimen was measured by quantifying the average radiation efficiency within the selected oval‐shaped regions‐of‐interest.
For the cartilage retention experiments (Figures S11 and S12, Supporting Information), Cy5‐(NlysO)7 (10 µM in 100 µL of 1× PBS buffer) was administered via tail vein to four male Balb/c nu mice (10 weeks old) at 2, 24, 48, and 96 h respectively, prior to fluorescence imaging using an IVIS Spectrum imaging system (ex/em: 620/670 nm, exposure: 1 s, bing: 4, F/Stop: 2). Following euthanasia, their cartilaginous tissues were harvested and imaged. The fluorescence images were analyzed and quantified as described above.

rat chondrocytes = test: CCK-8 cell viability assay on rat chondrocytes; assay type: cell-based; conditions: n = 4 wells
Description: The cultures were maintained under standard conditions of 37 °C and 5% CO2. Chondrocytes collected from the articular cartilage of Sprague‐Dawley (SD) rats (purchased from Jennio Biotech, JNO‐720) were cultured in DMEM medium (Precell, PM150210). Human venous endothelial cells (HUVECs, purchased from iCell, iCell‐h110) were cultured in HUVEC medium (iCell, iCell‐h110‐001b). Both cells were seeded in 96‐well plates at a density of 5000 cells per well. The medium was supplemented with 10% fetal bovine serum (FBS, Precell, 164210) and penicillin‐streptomycin (1:100 diluted from a 100× stock solution, ThermoFisher, 15140122) to support cell growth and prevent bacterial contamination. […] Cell viability was assessed using the CCK‐8 assay kit (GLPBIO, GK10001−5) according to the manufacturer's instructions. After further incubation for 4 h, the optical density (OD) of the CCK‐8 solution was measured at 450 nm using a microplate reader (PerkinElmer, EnVision). […] The fluorescence images were obtained using an EVOS M7000 imaging system (Light cubes: GFP and RFP, Objective: 10×). A microscopic image was taken from the live (Calcein AM) staining of each well, and the total fluorescence signals were quantified for each image. The mean fluorescence level of each probe's group was normalized to the blank control group to estimate the relative cell viability. […]

SMILES | cytotoxicity to HUVECs (CCK-8), in words [1] | cytotoxicity to HUVECs (CCK-8), in words ([1]; listed as Cy5-(NlysO)7) | in vivo retention in joints and ribs compared to peptide sequences Cy5-(GKO)7 and Cy5-R8 (cartilage; 1 nmol i.v., 0-96 h) | fluorescence in cartilage-rich tissues (knee joints, ribs) 2-96 h post-injection (cartilage; 1 nmol i.v., imaged at 2, 24, 48, 96 h) | cytotoxicity to chondrocytes over 72 h (CCK-8) (rat chondrocytes; tested concentrations 0-40 µM, 72 h) | time post-injection that in vivo signals in knee joints and thoracic costal cartilage remained detectable (cartilage; 1 nmol tail-vein injection, monitored over 96 h) | cytotoxicity to cultured chondrocytes (CCK8), in words (rat chondrocytes; 0-40 µM, 24 h)
CN1/C(=C/C=C/C=C/C2=[N+](CCCCCC(=O)NCCCCCC(=O)N(CCCCN)CC(=O)N3C[C@H](O)C[C@H]3C(=O)N(CCCCN)CC(=O)N3C[C@H](O)C[C@H]3C(=O)N(CCCCN)CC(=O)N3C[C@H](O)C[C@H]3C(=O)N(CCCCN)CC(=O)N3C[C@H](O)C[C@H]3C(=O)N(CCCCN)CC(=O)N3C[C@H](O)C[C@H]3C(=O)N(CCCCN)CC(=O)N3C[C@H](O)C[C@H]3C(=O)N(CCCCN)CC(=O)N3C[C@H](O)C[C@H]3C(N)=O)c3ccc(S(=O)(=O)[O-])cc3C2(C)C)C(C)(C)c2cc(S(=O)(=O)O)ccc21 [Cy5‐(NlysO)7] ({X1-Ahx}-[Nlys][Hyp][Nlys][Hyp][Nlys][Hyp][Nlys][Hyp][Nlys][Hyp][Nlys][Hyp][Nlys][Hyp]-NH2) | did not exhibit cytotoxicity | no apparent cytotoxicity at the tested concentrations | stronger retention in the joints and ribs in vivo | at 48 h but not 96 h | did not show cytotoxicity | – | –
CN1/C(=C/C=C/C=C/C2=[N+](CCCCCC(=O)NCCCCCC(=O)N[C@@H](CCCNC(=N)N)C(=O)N[C@@H](CCCNC(=N)N)C(=O)N[C@@H](CCCNC(=N)N)C(=O)N[C@@H](CCCNC(=N)N)C(=O)N[C@@H](CCCNC(=N)N)C(=O)N[C@@H](CCCNC(=N)N)C(=O)N[C@@H](CCCNC(=N)N)C(=O)N[C@@H](CCCNC(=N)N)C(N)=O)c3ccc(S(=O)(=O)[O-])cc3C2(C)C)C(C)(C)c2cc(S(=O)(=O)O)ccc21 [Cy5‐R8, reference compound] | significant cytotoxicity | – | – | – | – | difficult to find after 2 h post‐injection | significant cytotoxicity
